According to ChEMBL document CHEMBL3576858, “A natural product based DOS library of hybrid systems” (Eur J Med Chem, 2015):

How the values were obtained:
Plasmodium falciparum [1] = assay: Antiplasmodial activity against Plasmodium falciparum 3D7 infected in O positive erythrocytes assessed as inhibition of parasite growth at 50 uM by FACS-based assay; format: functional
Plasmodium falciparum [2] = assay: Antiplasmodial activity against Plasmodium falciparum 3D7 infected in O positive erythrocytes assessed as inhibition of parasite growth at 10 uM by FACS-based assay; format: functional
Plasmodium falciparum [3] = assay: Antiplasmodial activity against Plasmodium falciparum 3D7 infected in O positive erythrocytes assessed as inhibition of parasite growth at 30 uM by FACS-based assay; format: functional
Plasmodium falciparum [4] = assay: Antiplasmodial activity against Plasmodium falciparum 3D7 infected in O positive erythrocytes assessed as inhibition of parasite growth at 20 uM by FACS-based assay; format: functional
Plasmodium falciparum [5] = assay: Antiplasmodial activity against Plasmodium falciparum 3D7 infected in O positive erythrocytes assessed as inhibition of parasite growth at 500 nM by FACS-based assay; format: functional
Plasmodium falciparum [6] = assay: Antiplasmodial activity against Plasmodium falciparum 3D7 infected in O positive erythrocytes assessed as parasitemia at 50 uM after 48 hrs by FACS-based assay (reference value: 3.484%); format: functional
Plasmodium falciparum [7] = assay: Antiplasmodial activity against Plasmodium falciparum 3D7 infected in O positive erythrocytes assessed as inhibition of parasite growth at 40 uM by FACS-based assay; format: functional
Plasmodium falciparum [8] = assay: Antiplasmodial activity against Plasmodium falciparum 3D7 infected in O positive erythrocytes assessed as inhibition of parasite growth at 1 uM by FACS-based assay; format: functional
Plasmodium falciparum [9] = assay: Antiplasmodial activity against Plasmodium falciparum 3D7 infected in O positive erythrocytes assessed as parasitemia at 50 uM after 24 hrs by FACS-based assay (reference value: 1.670%); format: functional
Plasmodium falciparum [10] = assay: Antiplasmodial activity against Plasmodium falciparum 3D7 infected in O positive erythrocytes assessed as parasitemia at 50 uM after 36 hrs by FACS-based assay (reference value: 1.617%); format: functional
HepG2 [11] = assay: Cytotoxicity against human HepG2 cells at 10 uM after 24 hrs by MTT colorimetric assay; format: cell-based; details: hepg2, 24 h
HepG2 [12] = assay: Cytotoxicity against human HepG2 cells at 100 uM after 24 hrs by MTT colorimetric assay; format: cell-based; details: hepg2, 24 h
HepG2 [13] = assay: Cytotoxicity against human HepG2 cells at 1 uM after 24 hrs by MTT colorimetric assay; format: cell-based; details: hepg2, 24 h

Q: `C[C@]12CCC(=O)N1[C@H](CO)Cc1ccccc12` was tested. Which inhibition at 50 µM (Plasmodium falciparum [1]) did it give?
A: 19.1%

Q: And the inhibition at 10 µM (Plasmodium falciparum [2])?
A: 5.67%

Q: For `CN(C)C[C@@H]1Cc2ccccc2[C@@]2(C)CCC(=O)N12`, which inhibition at 50 µM (Plasmodium falciparum [1]) is on record?
A: 12.7%

Q: What about the inhibition at 10 µM (Plasmodium falciparum [2]) of the same compound?
A: 1.92%

Q: Which inhibition at 50 µM (Plasmodium falciparum [1]) does the source give for `CCOC(=O)C1C[C@]2(C)c3ccccc3C[C@@H](CN(C)C)N2C1=O` (stereo not given in full) here?
A: 74.5%

Q: And the inhibition at 10 µM (Plasmodium falciparum [2])?
A: 7.19%

Q: `CCOC(=O)[C@]1(c2ccc([N+](=O)[O-])cc2[N+](=O)[O-])C[C@]2(C)c3ccccc3C[C@@H](CN(C)C)N2C1=O` was tested. Which inhibition at 30 µM (Plasmodium falciparum [3]) did it give?
A: 48.9%

Q: And the inhibition at 50 µM (Plasmodium falciparum [1])?
A: 89.6%

Q: What about the inhibition at 20 µM (Plasmodium falciparum [4]) of the same compound?
A: 21.1%

Q: What about the inhibition at 0.5 µM (Plasmodium falciparum [5]) of the same compound?
A: 0%

Q: And the Activity (Plasmodium falciparum [6])?
A: 1.283%

Q: And the inhibition at 40 µM (Plasmodium falciparum [7])?
A: 61.5%

Q: What about the inhibition at 10 µM (Plasmodium falciparum [2]) of the same compound?
A: 71.6%

Q: And the inhibition at 1 µM (Plasmodium falciparum [8])?
A: 0%

Q: What about the Activity (Plasmodium falciparum [9]) of the same compound?
A: 1.737%

Q: And the Activity (Plasmodium falciparum [10])?
A: 1.217%

Q: `CCOC(=O)[C@@]1(c2ccc([N+](=O)[O-])cc2[N+](=O)[O-])C[C@]2(C)c3ccccc3C[C@@H](CN(C)C)N2C1=O` was tested. Which inhibition at 30 µM (Plasmodium falciparum [3]) did it give?
A: 52.9%

Q: What about the inhibition at 50 µM (Plasmodium falciparum [1]) of the same compound?
A: 91.5%

Q: What about the inhibition at 20 µM (Plasmodium falciparum [4]) of the same compound?
A: 48.1%

Q: What about the inhibition at 0.5 µM (Plasmodium falciparum [5]) of the same compound?
A: 0%

Q: And the Activity (Plasmodium falciparum [6])?
A: 0.9355%

Q: What about the inhibition at 40 µM (Plasmodium falciparum [7]) of the same compound?
A: 66.5%

Q: What about the inhibition at 10 µM (Plasmodium falciparum [2]) of the same compound?
A: 0.385%

Q: And the inhibition at 1 µM (Plasmodium falciparum [8])?
A: 5.77%

Q: And the Activity (Plasmodium falciparum [9])?
A: 1.421%

Q: And the Activity (Plasmodium falciparum [10])?
A: 1.571%

Q: How did the inhibition at 30 µM (Plasmodium falciparum [3]) turn out when `CN(C)C[C@@H]1Cc2ccccc2[C@@]2(C)C[C@]3(C(=O)Nc4cc(N)ccc43)C(=O)N12` was run?
A: 53.9%

Q: And the inhibition at 50 µM (Plasmodium falciparum [1])?
A: 82.3%

Q: And the inhibition at 20 µM (Plasmodium falciparum [4])?
A: 34.6%

Q: And the inhibition at 0.5 µM (Plasmodium falciparum [5])?
A: 0%

Q: What about the Activity (HepG2 [11]) of the same compound?
A: 5%

Q: And the inhibition at 40 µM (Plasmodium falciparum [7])?
A: 62.5%

Q: What about the inhibition at 10 µM (Plasmodium falciparum [2]) of the same compound?
A: 6.54%

Q: And the Activity (HepG2 [12])?
A: -36%

Q: And the Activity (HepG2 [13])?
A: -23%

Q: What about the inhibition at 1 µM (Plasmodium falciparum [8]) of the same compound?
A: 2.88%

Q: Which results are given for `CN(C)C[C@@H]1Cc2ccccc2[C@@]2(C)C[C@@]3(C(=O)Nc4cc(N)ccc43)C(=O)N12`?
A: inhibition at 50 µM (Plasmodium falciparum [1]): 10.1%; Activity (HepG2 [11]): -6%; inhibition at 10 µM (Plasmodium falciparum [2]): 5.38%; Activity (HepG2 [12]): -39%; Activity (HepG2 [13]): -52%

Q: What does the source list for `CN(C)C[C@@H]1Cc2ccccc2[C@@]2(C)C[C@]3(C(=O)Nc4ccccc43)C(=O)N12`?
A: inhibition at 30 µM (Plasmodium falciparum [3]): 48.1%; inhibition at 50 µM (Plasmodium falciparum [1]): 59.7%; inhibition at 20 µM (Plasmodium falciparum [4]): 44.2%; inhibition at 0.5 µM (Plasmodium falciparum [5]): 0%; Activity (HepG2 [11]): 1%; inhibition at 40 µM (Plasmodium falciparum [7]): 51.9%; inhibition at 10 µM (Plasmodium falciparum [2]): 30.1%; Activity (HepG2 [12]): -29%; Activity (HepG2 [13]): -54%; inhibition at 1 µM (Plasmodium falciparum [8]): 1.92%

Q: Which results are given for `CN(C)C[C@@H]1Cc2ccccc2[C@@]2(C)C[C@@]3(C(=O)Nc4ccccc43)C(=O)N12`?
A: inhibition at 30 µM (Plasmodium falciparum [3]): 52.4%; inhibition at 50 µM (Plasmodium falciparum [1]): 64.6%; inhibition at 20 µM (Plasmodium falciparum [4]): 37%; inhibition at 0.5 µM (Plasmodium falciparum [5]): 0.721%; Activity (HepG2 [11]): -4%; inhibition at 40 µM (Plasmodium falciparum [7]): 59.1%; inhibition at 10 µM (Plasmodium falciparum [2]): 14.8%; Activity (HepG2 [12]): -4%; Activity (HepG2 [13]): -7%; inhibition at 1 µM (Plasmodium falciparum [8]): 2.64%

Q: Which inhibition at 50 µM (Plasmodium falciparum [1]) does the source give for `C=CCC1(CC=C)C[C@]2(C)c3ccccc3C[C@@H](CO)N2C1=O` here?
A: 3.1%

Q: What about the inhibition at 10 µM (Plasmodium falciparum [2]) of the same compound?
A: 2.27%

Q: How did the inhibition at 50 µM (Plasmodium falciparum [1]) turn out when `C[C@]12CC3(CC=CC3)C(=O)N1[C@H](CO)Cc1ccccc12` was run?
A: 2.13%

Q: What about the Activity (HepG2 [11]) of the same compound?
A: -24%

Q: What about the Activity (Plasmodium falciparum [6]) of the same compound?
A: 0.9149%

Q: And the inhibition at 10 µM (Plasmodium falciparum [2])?
A: 1.8%

Q: And the Activity (HepG2 [12])?
A: -155%

Q: What about the Activity (HepG2 [13]) of the same compound?
A: -5%

Q: What about the Activity (Plasmodium falciparum [9]) of the same compound?
A: 0.7444%

Q: And the Activity (Plasmodium falciparum [10])?
A: 1.161%

Q: How did the inhibition at 50 µM (Plasmodium falciparum [1]) turn out when `C[C@]12CC3(CCCC3)C(=O)N1[C@H](CO)Cc1ccccc12` was run?
A: 1.53%

Q: What about the Activity (HepG2 [11]) of the same compound?
A: -15%

Q: What about the Activity (Plasmodium falciparum [6]) of the same compound?
A: 1.06%

Q: And the inhibition at 10 µM (Plasmodium falciparum [2])?
A: 0.971%

Q: What about the Activity (HepG2 [12]) of the same compound?
A: 10%

Q: And the Activity (HepG2 [13])?
A: -63%

Q: And the Activity (Plasmodium falciparum [9])?
A: 1.024%

Q: And the Activity (Plasmodium falciparum [10])?
A: 1.407%

Q: With `C[C@]12C[C@@]3(C(=O)NCC3c3ccccc3)C(=O)N1[C@H](CO)Cc1ccccc12` (stereo not given in full) as the compound, how does the Activity (Plasmodium falciparum [6]) read?
A: 1.058%

Q: What about the Activity (Plasmodium falciparum [9]) of the same compound?
A: 1.209%

Q: What about the Activity (Plasmodium falciparum [10]) of the same compound?
A: 1.255%

Q: `C[C@]12C[C@]3(C(=O)NCC3c3ccccc3)C(=O)N1[C@H](CO)Cc1ccccc12` (stereo not given in full) was tested. Which Activity (HepG2 [11]) did it give?
A: -19%

Q: What about the Activity (HepG2 [12]) of the same compound?
A: -41%

Q: And the Activity (HepG2 [13])?
A: -29%

Q: For `COC(=O)C1(C(C[N+](=O)[O-])c2ccccc2)C[C@]2(C)c3ccccc3C[C@@H](CO)N2C1=O` (mixture of isomers), which inhibition at 50 µM (Plasmodium falciparum [1]) is on record?
A: 1.9%

Q: And the Activity (HepG2 [11])?
A: -3%

Q: And the inhibition at 10 µM (Plasmodium falciparum [2])?
A: 1.21%

Q: And the Activity (HepG2 [12])?
A: -55%

Q: And the Activity (HepG2 [13])?
A: -45%
